Assays:
NaV1.7 = target: T1, NaV1.7 (Homo sapiens, UniProt Q15858); assay: Manual patch clamp, internal block of NaV1.7 current; format: cell-based; details: compound in internal solution, HEK293 cells, read-out: Nav1.7 Intracellular Inhibition; for inhibition at 3 µM: % inhibition at 3 μM test concentration; for inhibition at 10 µM: % inhibition at 10 μM test concentration
T1 construct: expressed in transfected cells; host or cells: HEK293 (tetracycline-inducible)
Experimental: Representative compounds of the invention were synthesized according to the described methods and tested for the ability to inhibit voltage-gated sodium channels.
NaV1.7 was expressed in HEK293 cells upon induction with tetracycline. Cells were cultured in DMEM containing 10% dialyzed Fetal Bovine Serum (VWR, Radnor, Pa.), 1% Glutamax (VWR, Radnor, Pa.), 1% Penicillin-Streptomycin (VWR, Radnor, Pa.), 100 mg/L Hygromycin (Thermo Fisher Scientific, Waltham, Mass. and 5 mg/L Blasticidin (Alfa Aesar, Haverhill, Mass.). Cells were grown and maintained at 37° C. in a humidified environment containing 10% CO2 in air. Cells were detached from the culture flask for passage and harvested using 0.05% Trypsin-EDTA (Thermo Fisher Scientific, Waltham, Mass.). To induce NaV1.7, cells were induced with tetracycline (0.1-1 μg/mL, IBI Scientific, Peosta, Iowa) the day before recording and plated onto 24-well plates. Cells were washed with DPBS (VWR, Radnor, Pa.), trypsinized and then triturated five times in 10 mL of growth media to break apart cell aggregates. For one 24-well plate, 2 mL of cell suspension was mixed with 23 mL of fresh growth media and 0.1-1 μg/mL tetracycline added. 1 ml of mixed media with cells was then added to each well of a 24-well plate, with a 12 mm coverslip already placed in the bottom of the well. Cells were then incubated in 37° C. and 10% CO2 overnight.
The intracellular solution contained the following (in mM) CsCl 135, NaCl 10, EGTA 10, HEPES 10, MgCl2 2, adjusted to pH 7.2 with CsOH. The external solution was a normal Ringer solution containing (in mM) NaCl 155, HEPES 10, glucose 10, KCl 3.5, CaCl2 1.5, MgCl2 1 adjusted to pH 7.4 with NaOH. CsCl is from Alfa Aesar, Haverhill, Mass. All other chemicals are from Sigma-Aldrich, St. Louis, Mo. In order to test the degree of internal block by test compounds the compounds were dissolved in internal solution at the indicated test concentration. […] In order to test the degree of external block by test compounds the compounds were dissolved in external solution at the indicated test concentration.
18-24 hours after cells were induced with tetracycline, coverslips were placed into a chamber filled with Normal Ringer solution at room temperature and the chamber placed on a microscope. Pipettes were pulled from borosilicate glass on a P97 puller (Sutter Instrument, Novato, Calif.) and polished with a MF-830 Microforge (Narishige International USA, Inc., Amityville, N.Y.) to have a resistance of 1.5-2.5 MΩ when filled with CsCl internal solution at room temperature. Healthy cells (those that are round and translucent with no visible blemishes) were chosen for seal formation. A seal was formed between the pipette and the cell, and a brief pulse of suction was used to “break in” and establish the whole-cell configuration. The membrane potential was held at −100 mV before the voltage protocol began. Only cells with series resistance between 1.5-5 MΩ were retained for analysis. The voltage protocol was as follows: Cells were held at −100 mV for 12 ms followed by a hyperpolarizing step to −105 mV for 12 ms to monitor the leak. Cells were then stepped back to −100 mV for 40 ms. Cells were then depolarized to −20 mV for 10 ms and then returned to −100 mV for 26 ms.
Once the recording was started, the voltage protocol was run at 30 second intervals for 5 minutes to get a stable baseline. This was followed by four 30-second periods of 5 Hz stimulation of the same voltage protocol separated by 1 minute of rest which was then followed by 0.33 Hz stimulation after the last train. Currents were recorded using PatchMaster software with Heka EPC10 (HEKA Electronics, Lambrecht, Germany). Only cells with inward current amplitudes at −20 mV between 400 pA and 4 nA were accepted. In addition, cells having leak currents greater than 10% of their current amplitudes were discarded. […]

[1] = PAMPA membrane permeability assay; format: in vitro ADME; details: permeability coefficient, pH 7.4 buffer, GIT lipid, 4 hours incubation
Experimental: The PAMPA assay (pION, Inc., Woburn Mass.) was used to determine the ability of compounds of the invention to cross an artificial lipid membrane by passive diffusion. Test compounds were dissolved in DMSO (10 mM) and diluted 200-fold in buffer (pION Inc., pH 7.4) to provide 50 uM stock solutions. Buffer (150 μL) was added to a UV blank plate and stock solutions (150 μL) were transferred to a UV reference plate. The blank and reference spectrum were read using a spectrophotometer. Stock solutions (200 μL) were added to the donor plate of the PAMPA sandwich plate and an accept plate painted with GIT lipid (pION Inc, 5) was placed on top. Buffer (200 μL) was added to the acceptor plate and the PAMPA sandwich plate was incubated for 4 hours. Aliquots (150 μL) from the acceptor plate were added to a UV plate and read as acceptor spectrum. Aliquots (150 μL) of the donor solutions were added to a UV analysis plate and read as donor spectrum. The permeability coefficient of test compounds was calculated using PAMPA Explorer™ software (version 3.5.0.4) based on the AUC of the reference plate, the donor plate, and the acceptor plate.
The PAMPA permeability results (10^−6 cm/s) of representative compounds are reported as “+” (<0.1 10^−6 cm/s), “++” (0.1-2.0 10^−6 cm/s), “+++” (2.0-10.010^−6 cm/s) or “++++” (>10.0 10^−6 cm/s).

T1 sequence (Q15858 whole entry): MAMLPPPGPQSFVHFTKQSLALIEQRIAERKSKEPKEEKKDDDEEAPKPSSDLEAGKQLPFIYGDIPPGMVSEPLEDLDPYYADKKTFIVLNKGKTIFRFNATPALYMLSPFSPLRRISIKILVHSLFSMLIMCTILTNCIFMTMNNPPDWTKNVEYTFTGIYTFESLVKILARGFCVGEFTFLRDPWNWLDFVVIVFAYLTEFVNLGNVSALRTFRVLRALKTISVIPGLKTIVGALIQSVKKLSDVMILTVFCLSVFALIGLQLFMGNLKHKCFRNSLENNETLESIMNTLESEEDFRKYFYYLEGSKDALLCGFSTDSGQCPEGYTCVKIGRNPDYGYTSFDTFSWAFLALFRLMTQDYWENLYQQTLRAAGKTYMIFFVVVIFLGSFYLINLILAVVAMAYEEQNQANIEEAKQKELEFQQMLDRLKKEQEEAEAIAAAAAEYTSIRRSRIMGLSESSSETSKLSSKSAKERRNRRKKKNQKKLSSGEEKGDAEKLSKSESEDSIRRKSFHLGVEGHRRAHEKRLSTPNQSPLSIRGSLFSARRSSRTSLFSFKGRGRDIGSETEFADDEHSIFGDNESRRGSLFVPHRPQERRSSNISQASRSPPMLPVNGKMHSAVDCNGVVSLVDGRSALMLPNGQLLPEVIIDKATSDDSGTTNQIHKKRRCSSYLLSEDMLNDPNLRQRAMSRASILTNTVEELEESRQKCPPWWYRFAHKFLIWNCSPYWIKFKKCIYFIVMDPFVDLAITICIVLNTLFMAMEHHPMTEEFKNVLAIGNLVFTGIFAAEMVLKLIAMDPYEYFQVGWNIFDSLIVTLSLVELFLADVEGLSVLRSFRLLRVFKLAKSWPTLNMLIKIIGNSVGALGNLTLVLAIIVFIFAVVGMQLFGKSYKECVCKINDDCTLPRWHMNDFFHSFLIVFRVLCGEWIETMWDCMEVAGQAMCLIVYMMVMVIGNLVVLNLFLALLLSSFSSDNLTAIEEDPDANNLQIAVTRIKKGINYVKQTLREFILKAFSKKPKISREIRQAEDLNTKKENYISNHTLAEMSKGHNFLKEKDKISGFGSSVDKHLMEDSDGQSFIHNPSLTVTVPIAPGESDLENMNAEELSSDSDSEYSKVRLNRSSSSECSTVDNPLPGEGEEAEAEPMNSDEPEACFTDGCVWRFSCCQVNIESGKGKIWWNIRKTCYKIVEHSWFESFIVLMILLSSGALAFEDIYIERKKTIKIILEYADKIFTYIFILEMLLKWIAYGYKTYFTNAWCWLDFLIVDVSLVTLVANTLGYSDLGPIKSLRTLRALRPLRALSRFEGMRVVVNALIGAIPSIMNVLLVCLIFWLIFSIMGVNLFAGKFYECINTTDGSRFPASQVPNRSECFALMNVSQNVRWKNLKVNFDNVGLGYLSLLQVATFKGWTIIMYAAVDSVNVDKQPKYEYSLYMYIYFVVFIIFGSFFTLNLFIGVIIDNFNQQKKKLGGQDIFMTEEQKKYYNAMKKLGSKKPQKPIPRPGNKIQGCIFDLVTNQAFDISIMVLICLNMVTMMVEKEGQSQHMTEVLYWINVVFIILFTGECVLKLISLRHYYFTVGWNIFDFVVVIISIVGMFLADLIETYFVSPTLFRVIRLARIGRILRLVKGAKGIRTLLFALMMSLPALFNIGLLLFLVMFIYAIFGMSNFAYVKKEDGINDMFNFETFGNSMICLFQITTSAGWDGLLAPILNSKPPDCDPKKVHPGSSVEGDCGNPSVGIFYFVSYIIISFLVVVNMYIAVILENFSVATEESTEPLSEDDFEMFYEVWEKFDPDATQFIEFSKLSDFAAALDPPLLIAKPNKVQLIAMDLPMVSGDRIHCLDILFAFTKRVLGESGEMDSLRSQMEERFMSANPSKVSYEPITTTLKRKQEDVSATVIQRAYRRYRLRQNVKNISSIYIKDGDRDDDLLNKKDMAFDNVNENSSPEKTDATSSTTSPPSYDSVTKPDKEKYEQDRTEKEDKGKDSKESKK

Structure (SMILES)	inhibition at 3 µM (NaV1.7) [%]	inhibition at 10 µM (NaV1.7) [%]	PAMPA (10^−6 cm/s) [1]
CCCCNC(=O)C1CCC[N+](CC(=O)Nc2c(C)cccc2C)(Cc2ccccc2)C1.[Br-] (centres unmarked) [Compound 59A]	< 40	70 to 95	+ (“+” (<0.1 10^−6 cm/s))
CCC(C(=O)Nc1c(C)cccc1C)[N+]1(Cc2ccc(Cl)cc2)CCCCC1 (centres unmarked) [Compound 10A]		70 to 95	+ (“+” (<0.1 10^−6 cm/s))
CCCCN(C(=O)OC(C)(C)C)c1ccc(NC(=O)C[N+]2(Cc3ccccc3)CCCCCC2)cc1 [Compound 40A, 1-benzyl-1-(2-((4-((tert-butoxycarbonyl) (butyl)amino)phenyl)amino)-2-oxoethyl) azepan-1-ium bromide]		40 to 70	
CCC(C(=O)Nc1c(C)cccc1C)[N+]1(Cc2cccc(F)c2)CCCCC1 (centres unmarked) [Compound 8A]		70 to 95	+ (“+” (<0.1 10^−6 cm/s))
Cc1cccc(C)c1N1CCCC([N+]2(Cc3ccccc3)CCCCCC2)C1=O (centres unmarked) [Compound 93A]	70 to 90		+ (“+” (<0.1 10^−6 cm/s))
CCCCNc1ccc(NC(=O)C[N+]2(Cc3ccccc3)CCCCC2)cc1.O=C([O-])O [Compound 42A, 1-benzyl-1-(2-((4-(butylamino)phenyl)amino)-2-oxoethyl) piperidin-1-ium carbonate]			++ (“++” (0.1-2.0 10^−6 cm/s))
CCC(C(=O)Nc1c(C)cccc1C)[N+]1(Cc2ccsc2)CCCCC1 (centres unmarked) [Compound 26A]		70 to 95	+ (“+” (<0.1 10^−6 cm/s))
CCC(C(=O)Nc1c(C)cccc1C)[N+]1(Cc2ccccc2C)CCCCC1 (centres unmarked) [Compound 18A]		70 to 95	+ (“+” (<0.1 10^−6 cm/s))
CCc1ccc(C[N+]2(C(CC)C(=O)Nc3c(C)cccc3C)CCCCC2)cc1 (centres unmarked) [Compound 19A]		40 to 70	+ (“+” (<0.1 10^−6 cm/s))
CCC(C(=O)Nc1c(C)cccc1C)[N+]1(Cc2cccc(C#N)c2)CCCCC1 (centres unmarked) [Compound 14A]		70 to 95	+ (“+” (<0.1 10^−6 cm/s))
CCC(C(=O)Nc1c(C)cccc1C)[N+]1(Cc2cccc(C)c2)CCCCC1 (centres unmarked) [Compound 17A]		> 95	+ (“+” (<0.1 10^−6 cm/s))
CCCCNc1cc(C)c(NC(=O)C(CC)[N+]2(Cc3ccccc3)CCCCC2)c(C)c1 (centres unmarked) [Compound 43A, 1-benzyl-1-(1-((4-(butylamino)-2,6-dimethylphenyl)amino)-1-oxobutan-2-yl) piperidin-1-ium carbonate]		70 to 95	
CCC(C(=O)Nc1c(C)cc(C)cc1C)[N+]1(Cc2ccccc2)CCCCC1.[Br-] (centres unmarked) [Compound 39A, 1-benzyl-1-(1-(mesitylamino)-1-oxobutan-2-yl) piperidin-1-ium bromide]		70 to 95	+ (“+” (<0.1 10^−6 cm/s))
CCC(C(=O)Nc1c(C)cccc1C)[N+]1(Cc2ccc(C#N)cc2)CCCCC1 (centres unmarked) [Compound 13A]		70 to 95	+ (“+” (<0.1 10^−6 cm/s))
CCC(C(=O)Nc1c(C)cccc1C)[N+]1(Cc2ccccc2OC)CCCCC1 (centres unmarked) [Compound 24A, 1-(1-((2,6-dimethylphenyl)amino)-1-oxobutan-2-yl)-1-(2-methoxybenzyl) piperidin-1-ium bromide]	> 90	> 95	
CCC(C(=O)Nc1c(C)cccc1C)[N+]1(Cc2ccc(C)cc2)CCCCC1 (centres unmarked) [Compound 16A]		> 95	+ (“+” (<0.1 10^−6 cm/s))
CCc1ccccc1C[N+]1(C(CC)C(=O)Nc2c(C)cccc2C)CCCCC1 (centres unmarked) [Compound 21A]	> 90	> 95	+ (“+” (<0.1 10^−6 cm/s))
CCC(C(=O)Nc1c(C)cccc1C)[N+]1(Cc2ccccc2Cl)CCCCC1 (centres unmarked) [Compound 12A]		> 95	+ (“+” (<0.1 10^−6 cm/s))
Cc1cccc(C)c1NC(=O)C[N+](C)(C)Cc1ccccc1 [Compound 2A, N-benzyl-2-((2,6-dimethylphenyl)amino)-N,N-dimethyl-2-oxoethan-1-aminium bromide]		40 to 70	+ (“+” (<0.1 10^−6 cm/s))
Cc1cccc(C)c1NC(=O)C[N+]1(Cc2ccccc2)CCCC1.[Br-] [Compound 5A, 1-benzyl-1-(2-((2,6-dimethylphenyl)amino)-2-oxoethyl) pyrrolidin-1-ium bromide]	> 90	70 to 95	+ (“+” (<0.1 10^−6 cm/s))
CCC(C(=O)Nc1c(C)cccc1C)[N+]1(Cc2cnc(C)s2)CCCCC1 (centres unmarked) [Compound 25A]		40 to 70	
CCC(C(=O)Nc1c(C)cccc1C)[N+]1(Cc2ccc(F)cc2)CCCCC1 (centres unmarked) [Compound 7A]		70 to 95	+ (“+” (<0.1 10^−6 cm/s))
CCC(C(=O)Nc1c(C)cccc1C)[N+]1(Cc2ccccc2)CCCCCC1.[Br-] (centres unmarked) [Compound 30A, 1-benzyl-1-(1-((2,6-dimethylphenyl)amino)-1-oxobutan-2-yl) azepan-1-ium bromide]	> 90	> 95	+ (“+” (<0.1 10^−6 cm/s))
CCC(C(=O)Nc1c(C)cccc1C)[N+]1(Cc2cccc(O)c2)CCCCC1 (centres unmarked) [Compound 29A, 1-(1-((2,6-dimethylphenyl)amino)-1-oxobutan-2-yl)-1-(3-hydroxybenzyl) piperidin-1-ium carbonate]	> 90	70 to 95	
CCC(C(=O)Nc1c(C)cccc1C)[N+]1(Cc2cc(C)on2)CCCCC1 (centres unmarked) [Compound 27A]		70 to 95	+ (“+” (<0.1 10^−6 cm/s))
CCC(C(=O)Nc1c(C)cccc1C)[N+]1(Cc2ccc(OC)cc2)CCCCC1 (centres unmarked) [Compound 22A]	70 to 90	70 to 95	
CC[N+](CC)(CC(=O)Nc1c(C)cccc1C)Cc1ccccc1 [Compound 1A, N-benzyl-2-((2,6-dimethylphenyl)amino)-N,N-diethyl-2-oxoethan-1-aminium bromide]		70 to 95	
CCC(C(=O)Nc1c(C)cccc1C)[N+]1(Cc2ccccc2O)CCCCC1 (centres unmarked) [Compound 28A, 1-(1-((2,6-dimethylphenyl)amino)-1-oxobutan-2-yl)-1-(2-hydroxybenzyl) piperidin-1-ium 2,2,2-trifluoroacetate]	< 40	40 to 70	
CCC(C(=O)Nc1c(C)cccc1C)[N+]1(Cc2cccc(Cl)c2)CCCCC1 (centres unmarked) [Compound 11A]		> 95	
